Results on 16 molecules are retold here after ChEMBL document CHEMBL4418304, “Combinations for the treatment of kidney stones” (2017).

Experiment [1] has as its target T1, Hydroxyproline dehydrogenase (Homo sapiens, UniProt Q9UF12).
T1 sequence (Q9UF12 whole entry): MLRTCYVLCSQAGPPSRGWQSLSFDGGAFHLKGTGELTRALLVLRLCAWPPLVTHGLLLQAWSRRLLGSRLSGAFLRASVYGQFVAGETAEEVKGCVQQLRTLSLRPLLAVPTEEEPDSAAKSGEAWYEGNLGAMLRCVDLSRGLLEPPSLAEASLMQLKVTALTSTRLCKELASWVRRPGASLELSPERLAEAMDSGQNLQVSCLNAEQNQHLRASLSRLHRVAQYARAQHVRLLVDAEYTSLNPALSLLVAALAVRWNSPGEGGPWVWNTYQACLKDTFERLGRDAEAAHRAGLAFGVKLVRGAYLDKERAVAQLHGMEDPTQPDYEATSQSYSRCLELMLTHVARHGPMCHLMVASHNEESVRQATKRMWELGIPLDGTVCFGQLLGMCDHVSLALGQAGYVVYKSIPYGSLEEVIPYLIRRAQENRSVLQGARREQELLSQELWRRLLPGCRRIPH
Put plainly: Inhibition of recombinant human HYPDH expressed in Escherichia coli using hydroxyproline as substrate preincubated for 5 mins followed by substrate addition in presence of FAD as cofactor.

The target in the next experiment is T2, 2-Hydroxyacid oxidase 1 (Homo sapiens, UniProt Q9UJM8).
T2 sequence (Q9UJM8 whole entry): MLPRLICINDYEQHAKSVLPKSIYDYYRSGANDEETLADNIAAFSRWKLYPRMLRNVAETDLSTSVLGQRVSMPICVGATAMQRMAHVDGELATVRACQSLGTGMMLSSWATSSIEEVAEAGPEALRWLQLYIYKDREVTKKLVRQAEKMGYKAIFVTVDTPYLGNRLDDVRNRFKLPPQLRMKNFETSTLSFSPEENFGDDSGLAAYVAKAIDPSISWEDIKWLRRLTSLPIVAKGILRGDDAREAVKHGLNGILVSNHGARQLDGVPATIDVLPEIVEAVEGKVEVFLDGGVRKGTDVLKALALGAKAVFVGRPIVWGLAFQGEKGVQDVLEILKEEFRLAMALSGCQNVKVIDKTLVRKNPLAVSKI
In words: Inhibition of recombinant human liver HAOX1 using glycolate as substrate preincubated for 5 mins followed by substrate addition in presence of […].

A word on the IC50: it is the concentration at which inhibition is half-maximal. In general, Ki refers to a dissociation constant, usually derived from enzyme kinetics or from competition with a known ligand.

Regarding `O=C(O)[C@H]1CC[C@H](O)C1`, in experiment [1] (read-out: IC50), the 50% inhibitory concentration (IC50) came out at 600 µM.
For `O=C1CC[C@H](C(=O)O)C1`, in experiment [1] (read-out: IC50), the IC50 stood at 380 µM.
Consider `O=C(O)c1ccco1`, for which the IC50 entry in experiment [1] is recorded as “Nd(Insoluble)”.
Take `O=C(O)C1=NN=C(O)C1`: the IC50 in experiment [1] (read-out: IC50) stood at 2900 µM.
As to `O=C(O)C[C@H]1CC[C@H](O)C1`, the half-maximal inhibitory concentration (IC50) in experiment [1] (read-out: IC50) turned out to be 480 µM.
For `N[C@H]1CC[C@H](C(=O)O)C1`, in experiment [1] (read-out: IC50), the IC50 turned out to be 630 µM.
Take `O=C(O)[C@@H]1C[C@@H](O)CS1`: the IC50 in experiment [1] (read-out: IC50) worked out at 330 µM.
As to `O=C(O)[C@H]1CC[C@@H](O)C1`, the IC50 in experiment [1] (read-out: IC50) was more than 10000 µM.
The same measure, in the same setting: next, `O=C(O)[C@@H]1CC(O)(O)CS1`: 290 µM; `O=C1CS[C@H](C(=O)O)C1`: 320 µM; `O=C(O)c1cc(O)cs1`: less than 1000 µM.
As to `O=C(O)C1CCCO1` (stereo unspecified), in experiment [1] (read-out: IC50), the 50% inhibitory concentration (IC50) came to 1500 µM.
As to `O=C1CC[C@@H](C(=O)O)C1`, in experiment [1] (read-out: IC50), the concentration for half-maximal inhibition (IC50) came out at 370 µM.
The same measure, in the same setting: with `O=C(O)[C@@H]1C[C@H](O)CS1` the figure was 370 µM; with `O=C(O)[C@@H]1CC[C@@H](O)C1`, 2100 µM.
Consider `CCCCCCCCCCCCSc1[nH]nnc1C(=O)O`, for which the Ki on 2-Hydroxyacid oxidase 1 is 0.015 µM.
